In patent US8133849B2, “Herbicidal compounds” (Syngenta Limited, priority 2007, dated 2012):

Tests used:
Test in all cases: Example B2 herbicidal action, post-emergence, pots in glasshouse, damage score 0-10
Type in all cases: in vivo
Settings in all cases: application post-emergence, rate 1000 g/ha, evaluated after 13 days
Ipomea hederaceae = system: Ipomea hederaceae
Method in brief: (§1)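 Pot-grown plants were sprayed post-emergence at 8 days with active ingredient in aqueous spray derived from acetone/water (50:50) containing 0.5% Tween 20. Glasshouse conditions were 24/16° C day/night, 14 h light and 65% humidity, with watering twice daily. Damage was scored 13 days after spraying.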

Solanum nigrum = system: Solanum nigrum
Method in brief: as §1

Amaranthus retroflexus = system: Amaranthus retroflexus
Method in brief: as §1

Echinochloa crus-galli = system: Echinochloa crus-galli
Method in brief: as §1

Setaria faberi = system: Setaria faberi
Method in brief: as §1

SMILES	IPOHE damage score (10=total damage to plant; 0=no damage to plant) (Ipomea hederaceae)	SOLNI damage score (10=total damage to plant; 0=no damage to plant) (Solanum nigrum)	AMARE damage score (10=total damage to plant; 0=no damage to plant) (Amaranthus retroflexus)	ECHCG damage score (10=total damage to plant; 0=no damage to plant) (Echinochloa crus-galli)	SETFA damage score (10=total damage to plant; 0=no damage to plant) (Setaria faberi)
CC(C)C(=O)OC1=C(c2cc(C(F)(F)F)ccc2Cl)S(=O)(=O)N(CC(Cl)Cl)c2nccnc21 [Compound C115]	6	9	8	1	5
CCN1c2nccnc2C(OC(=O)C(C)C)=C(c2cccc(C(F)(F)F)c2Cl)S1(=O)=O [Compound C75]	2	6	5	1	0
CCN1c2nccnc2C(OC(=O)C(C)(C)C)=C(c2c(Cl)ccc(Cl)c2Cl)S1(=O)=O [Compound C72]	10	10	9	6	1
CC#CCN1c2nccnc2C(OC(=O)SCC)=C(c2c(Cl)ccc(Cl)c2C(F)(F)F)S1(=O)=O [Compound C97]	4	6	0	1	0
CC(C)(C)C(=O)OC1=C(c2ccccc2OC(F)(F)F)S(=O)(=O)N(CC(F)F)c2nccnc21 [Compound C21]	9	10	7	6	4
O=S1(=O)C(c2cccc(C(F)(F)F)c2Cl)=C(O)c2nccnc2N1CC(F)F [Compound D37]	10	9	10	3	5
COCN1c2nccnc2C(OC(=O)C(C)C)=C(c2ccc(Cl)cc2Cl)S1(=O)=O [Compound C27]	6	9	7	3	6
CSC(=O)OC1=C(c2c(Cl)ccc(Cl)c2Cl)S(=O)(=O)N(CC(F)F)c2nccnc21 [Compound C130]	10	10	10	8	7
Cc1ccc(C2=C(OC(=O)C(C)C)c3nccnc3N(CC(F)F)S2(=O)=O)c(Cl)c1 [Compound C136, isobutyric acid 3-(2-chloro-4-methyl-phenyl)-1-(2,2-difluoro-ethyl)-2,2-dioxo-1,2-dihydro-2-λ-6-thia-1,5,8-triaza-naphthalen-4-yl ester]	7	8	3	0	2
O=S1(=O)C(c2cc(I)ccc2Cl)=C(O)c2nccnc2N1CC(F)F [Compound D29]	7	7	5	2	3
CC(C)C(=O)OC1=C(c2ccccc2C(F)(F)F)S(=O)(=O)N(CC(F)F)c2nccnc21 [Compound C61]	10	10	10	9	10
CCOC(=O)OC1=C(c2cc(Cl)cc(C(F)(F)F)c2)S(=O)(=O)N(CC(F)F)c2nccnc21 [Compound C124]	2	2	10	0	0
CCSC(=O)OC1=C(c2cc(C(F)(F)F)ccc2Cl)S(=O)(=O)N(C)c2nccnc21 [Compound C89]	9	10	7	6	1
